Reference: article PMC6727188, “Image-Based Investigation: Biorelevant Solubility of α and γ Indomethacin” (Analytical Chemistry, 2019)
Converted amounts (≈) assume the structure as drawn.

How the values were obtained:
[1] = parameters: method as in ref 9 (Hancock et al.); settings: 200 mL deionized water, 45 °C; ref 9 (Hancock et al.); cited from earlier work
physchem = assay type: physicochemical; settings: for solubility: thermodynamic from solid, Shake-flask solubility
Experimental: The solubilities of α and γ indomethacin were measured by the conventional shake-flask method in HCl (pH 1.6), FaSSGFblk, and FeSSIFblk. A detailed description of the methodology can be found in the Supporting Information on page S-2.
Effect of particle morphology on the solubility values measured by the SPA method was assessed by the
MatLab® regionprops toolbox. Three morphology-describing parameters were extracted; namely:
eccentricity, major axis length and minor axis length. The morphology parameters were then plotted against
solubility values of individual particles (Figure S1 and Figure S2). No specific effect of particle morphology
on solubility, in the size range studied (5-25 µm), was found.
Shake-flask solubility measurements
Indomethacin α and γ samples were placed in excess amount into vials. The vials were filled with HCl,
FaSSGFblk and FeSSIFblk media and left to stir on a rotating machine. This procedure was repeated in
triplicate for both solid-state forms and the three media. After 24h, 48h and 72h samples of 2 mL were
extracted and filtered (Whatman™ PVDF 13 mm with 0.45 µm pore size). After filtration, the samples of α
indomethacin were diluted four times with the corresponding medium […]
The drug concentration in the samples was determined using an Agilent High Performance Liquid
Chromatography (HPLC) 1260 system (Agilent Technologies, Germany). The Phenomenex Gemini NX-
C18, 3 µm, 100 x 4.6 mm column (Phenomenex, Torrance, CA) was used in the assays. The temperature of
the column was set to 30°C. Mobile phase used was 0.2% H3PO4:Acetonitrile (40:60, v:v) with flow rate of
1.5 mL/min. Injection volume was 20 µL and total run time 5 min. Detection was preformed at 270 nm.
Standard solutions of indomethacin in MilliQ:Ethanol (50:50, v:v) were prepared and analyzed with HPLC
to construct the calibration curve. All samples were analyzed in triplicate: 0.1, 0.5, 1, 10, 50 and 100 µg/mL
After 72h, the remaining excess solids, from vials were initially α form of indomethacin was placed, were
filtered and dried overnight in a vacuum oven. The next day, the excess solids were analyzed by XRPD and
XRPD diffractograms of the
remaining solids are presented in the Figure S3 and DSC thermograms in the Figure S4.
When comparing the shake-flask solubility values to the SPA solubility values, they are in the same rank
order and within the generally accepted interlaboratory variance, 0.6 log units.32 Moreover, a slight shift of
XRPD peaks to the left and appearance of a small melting peak at 159.3°C ± 0.1°C in the DSC thermograms
of the remaining excess solid samples indicate a presence of γ form (Figure S3 and S4). The presence of γ
form, in vials were initially pure α form was placed, would result in lower solubility ratio of α to γ solubility
measured by shake-flask method (1.7 ± 0.4) when compared to the ratio obtained by the SPA method (3.3 ±
0.5). With the SPA method, the actual solubility of the metastable α form was measured before any possible
solid-state transformation occurred that could affect the measurement. This was achieved by starting the
measurement as soon as the solvent came in contact with the sample and also by maintaining the sink
conditions in the flow-through cell.

[2] = Estimation of the free-energy difference between polymorphs from DSC melting data; assay type: physicochemical; settings: estimated from DSC melting data, extrapolated to room temperature
Experimental: DSC experiments were performed using a DSC823e (Mettler-Toledo, Greifensee, Switzerland) equipped with a refrigerated cooling system (Julabo FT 900, Seelbach, Germany). Nitrogen was used as a purge gas (50 mL/min).
Samples (2–5 mg) were tightly packed into standard aluminum crucibles (40 μL) with pierced lids. Two different procedures were used in these measurements. For determination of melting temperature and enthalpy, the samples were equilibrated at 25 °C for 3 min and then linearly heated with a heating rate of 10 °C/min to 180 °C. For determination of heat capacities, the samples were equilibrated at 140 °C and then heated up to 180 °C using a TOPEM-modulated heating program with a heating rate of 1 °C/min and a pulse height of 1 °C. Samples were measured in triplicate, and thermal events were analyzed using STARe software (Mettler-Toledo, Greifensee, Switzerland). Temperatures of melting, enthalpies of melting, and heat capacities were used to estimate the free-energy difference between the α and γ polymorphs.
The free-energy difference between two polymorphs can be estimated from their melting data or their respective solubility values. […]

[3] = Image-based single-particle-analysis (SPA) solubility measurement in a flow-through setup; assay type: physicochemical; settings: for solubility ratio (RS) FaSSGF/FaSSGFblk / solubility ratio (RS) FaSSGF/HCl / solubility ratio (RS) FaSSGFblk/HCl / solubility ratio (RS) FeSSIF/FeSSIFblk: same solid-state form in different media
Experimental: Dissolution experiments utilizing the SPA method were performed using a custom-made flow-through setup (Figure 1). The experiments were conducted at room temperature (22 °C) rather than at 37 °C in order to ensure controlled experimental conditions. The setup enables the trapping of particles under constant-flow conditions. In this way, dissolved molecules are continuously extracted from the chamber, and sink conditions are maintained. As the measurement can be started as soon as the solvent comes in contact with the entrapped particles, the actual solubility of a metastable form can be measured before any possible solid-state transformation occurs that could affect the solubility. In eq 1, at sink conditions, bulk concentration (Cb) can be disregarded because it is practically zero. This means the dissolution rate (dm/dt) is dependent only on the equilibrium solubility at the interface (CS); k is the setup-dependent transport-rate constant determined as described by Svanbäck.[20] [drawing 1] 1 For a single measurement, approximately 10 mL of dissolution medium and less than 0.1 mg of sample were used. Online images were acquired over 15 min through the transparent part of the flow-through chamber using a USB microscope (Gigastone S1-100, Irvine, CA). At least five particles per solid-state form per medium were measured. For the analysis of the image data, a MatLab script was previously developed by Svanbäck and co-workers.[20],[22] The script enables quantification of the particle’s morphology change (i.e., dissolution rate) and, consequently, calculation of the solubility according to eq 1.

[4] = parameters: method as in ref 15 (Fagerberg and co-workers); settings: 37 °C, μDISS profiler; ref 15 (Fagerberg and co-workers); cited from earlier work
[5] = SPA method, FaSSGF pH 1.6, 22 °C
[6] = SPA method, FaSSGFblk (blank FaSSGF) pH 1.6, 22 °C
[7] = SPA method, FeSSIF pH 5.0, 22 °C
[8] = SPA method, FeSSIFblk (blank FeSSIF) pH 5.0, 22 °C

solubility [3, 5] [µg/mL] | solubility [3, 6] [µg/mL] | solubility [3, 7] [µg/mL] | solubility [3, 8] [µg/mL] | solubility ratio (RS) FaSSGF/FaSSGFblk ([3]; SPA method) | solubility ratio (RS) FaSSGF/HCl ([3]; SPA method) | solubility ratio (RS) FaSSGFblk/HCl ([3]; SPA method) | solubility ratio (RS) FeSSIF/FeSSIFblk ([3]; SPA method) | Compound | other results
0.29 ± 0.16 (≈ 0.811 µM) | 0.14 ± 0.09 (≈ 0.391 µM) | 15.7 ± 10.4 (≈ 43.9 µM) | 2.79 ± 1.67 (≈ 7.8 µM) | 2.1 | 0.9 | 0.4 | 5.6 | COc1ccc2c(c1)c(CC(=O)O)c(C)n2C(=O)c1ccc(Cl)cc1 [α form, indomethacin] | α- to γ-solubility ratio [1]: 1.1; free-energy difference ΔG between the α and γ polymorphs (physchem): 0.311 kcal/mol; ratio of α- to γ-solid-state-form solubility (physchem): 1.7 ± 0.4; solubility (physchem; pH 1.6, fassgf or other biorelevant): 0.5 ± 0.2 µg/mL (≈ 1.4 µM); solubility (physchem; pH 1.6, simulated gastric fluid): 0.6 ± 0.1 µg/mL (≈ 1.68 µM); solubility (physchem; pH 5, fassgf or other biorelevant): 9 ± 0.2 µg/mL (≈ 25.2 µM); free-energy difference ΔG between the α and γ polymorphs [2]: 12 ± 7 J/g; solubility ([3]; SPA method, HCl pH 1.6, 22 °C): 0.34 ± 0.20 µg/mL (≈ 0.95 µM); ratio of α- to γ-solid-state-form solubility ([3]; SPA method, constant in all studied media (HCl, FaSSGFblk, FaSSGF, FeSSIFblk, FeSSIF)): 3.3 ± 0.5; free-energy difference ΔG between the α and γ polymorphs ([3]; from the SPA solubility ratios, molar units): 0.693 kcal/mol; free-energy difference ΔG between the α and γ polymorphs ([3]; from the α- to γ-solubility ratio obtained with the SPA method (eq 7), ambient temperature): 8 ± 1 J/g
0.10 ± 0.02 (≈ 0.279 µM) | 0.04 ± 0.03 (≈ 0.112 µM) | 3.80 ± 1.74 (≈ 10.6 µM) | 0.94 ± 0.58 (≈ 2.63 µM) | 2.5 | 1.0 | 0.4 | 4.0 | COc1ccc2c(c1)c(CC(=O)O)c(C)n2C(=O)c1ccc(Cl)cc1 [γ form, indomethacin] | Shake-flask solubility (physchem; pH 1.6): 0.3 ± 0.1 µg/mL; Shake-flask solubility (physchem; pH 5): 6.4 ± 0.1 µg/mL; fold increase in solubility from FeSSIFblk to FeSSIF [4]: 7.3 fold; solubility ([3]; SPA method, HCl pH 1.6, 22 °C, listed as Indomethacin γ): 0.10 ± 0.05 µg/mL (≈ 0.279 µM)
